Our source for the IC50 values is patent US20250134869A1, “Pyrrolo[2,3-d]pyrimidinyl, Pyrrolo[2,3-b]pyrazinyl and Pyrrolo[2,3-d]pyridinyl Acryla-mides” (Pfizer Inc, priority 2021, published 2025).

This assay addresses JAK3 enzyme (Homo sapiens (Human), UniProt P52333). Kind of assay: JAK Caliper Enzyme Assay at 4 μM or 1 mM ATP. In kind it is biochemical. As to the method:
JAK Caliper Enzyme Assay at […] or 1 mM ATP
Test article was solubilized in dimethyl sulfoxide (DMSO) to a stock concentration of 30 mM. An 11-point half log dilution series was created in DMSO with a top concentration of 600 μM. […] The compound plates were diluted 1 to 60 resulting in a top final assay compound concentration of 10 μM and a 2% DMSO concentration.
Test article and assay controls were added to a 384-well plate. Reaction mixtures contained 20 mM HEPES, pH 7.4, 10 mM magnesium chloride, 0.01% bovine serum albumin (BSA), 0.0005% Tween […] or 1 mM ATP and […] peptide substrate. […] The assays were initiated by the addition 1 nM JAK3 enzyme and were incubated at room temperature 75 minutes for JAK3. Enzyme concentrations and incubation times were optimized for each new enzyme preps and were modified slightly over time to ensure 20%-30% phosphorylation. The assays were stopped with a final concentration of 10 mM EDTA, 0.1% Coating Reagent and 100 mM HEPES, pH=7.4. The assay plates were placed on a Caliper Life Science Lab Chip 3000 (LC3000) instrument, and each well was sampled using appropriate separation conditions to measure the unphosphorylated and phosphorylated peptide.

[1] abbreviates: read-out: JAK3 (4 μM ATP) IC50, 4 μM ATP.
[2] abbreviates: read-out: JAK3 (1 mM ATP) IC50, 1 mM ATP.

Like-named read-outs stand apart in the source and are kept apart here. Where only a bound is given, the exact number is not on record here.

JAK3 enzyme, sequence (P52333 whole entry, species assumed): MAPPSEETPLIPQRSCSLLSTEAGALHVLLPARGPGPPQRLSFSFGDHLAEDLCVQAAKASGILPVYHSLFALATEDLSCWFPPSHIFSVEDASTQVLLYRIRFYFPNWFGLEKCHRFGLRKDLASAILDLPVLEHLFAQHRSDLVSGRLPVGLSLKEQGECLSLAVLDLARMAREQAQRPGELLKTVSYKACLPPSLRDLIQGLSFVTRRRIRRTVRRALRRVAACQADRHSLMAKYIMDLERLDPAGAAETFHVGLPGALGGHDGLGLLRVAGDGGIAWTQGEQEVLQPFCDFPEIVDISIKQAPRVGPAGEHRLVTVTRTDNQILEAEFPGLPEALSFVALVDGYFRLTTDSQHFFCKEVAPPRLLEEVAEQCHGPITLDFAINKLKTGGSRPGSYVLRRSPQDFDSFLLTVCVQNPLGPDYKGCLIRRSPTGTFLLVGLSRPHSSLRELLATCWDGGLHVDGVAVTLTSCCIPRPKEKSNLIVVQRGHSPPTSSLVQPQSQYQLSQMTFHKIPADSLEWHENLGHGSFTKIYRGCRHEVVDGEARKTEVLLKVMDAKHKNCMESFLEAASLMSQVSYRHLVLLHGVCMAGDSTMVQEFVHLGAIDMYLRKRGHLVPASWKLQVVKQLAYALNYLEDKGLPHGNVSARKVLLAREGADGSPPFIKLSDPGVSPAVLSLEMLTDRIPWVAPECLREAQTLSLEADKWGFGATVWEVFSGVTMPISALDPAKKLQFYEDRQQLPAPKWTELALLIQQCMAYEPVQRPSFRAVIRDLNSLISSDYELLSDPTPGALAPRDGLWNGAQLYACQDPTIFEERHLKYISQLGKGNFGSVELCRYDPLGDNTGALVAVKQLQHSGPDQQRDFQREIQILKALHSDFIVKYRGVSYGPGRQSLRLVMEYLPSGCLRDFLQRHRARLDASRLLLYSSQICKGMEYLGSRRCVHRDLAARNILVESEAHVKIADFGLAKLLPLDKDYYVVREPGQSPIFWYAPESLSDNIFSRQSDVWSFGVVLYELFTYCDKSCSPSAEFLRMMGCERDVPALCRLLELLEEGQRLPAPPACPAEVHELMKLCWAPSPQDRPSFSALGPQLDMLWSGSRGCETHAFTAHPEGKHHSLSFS

Take `C=C(C)C(=O)N1CCC[C@@H](N2CC(C)c3c[nH]c4ncnc2c34)C1` (mixture of isomers) [Example 153, 2-Methyl-1-[(3R)-3-(3-methyl-3,4-dihydro-1,5,6,8-tetraazaacenaphthylen-5 (1H)-yl)piperidin-1-yl]prop-2-en-1-one]: the IC50 under setting [1] is 9.44 µM.

Take `C/C=C/C(=O)N1CCC[C@@H](N2CC(C)c3c[nH]c4ncnc2c34)C1` (mixture of isomers) [Example 154, (2E)-1-[(3R)-3-(3-methyl-3,4-dihydro-1,5,6,8-tetraazaacenaphthylen-5 (1H)-yl)piper-idin-1-yl]but-2-en-1-one]: the half-inhibitory concentration (IC50) under setting [1] stood at 4.94 µM.

With `C=CC(=O)N1C[C@H](Nc2ncnc3[nH]ccc23)CC[C@@H]1CC` (single isomer, unassigned) [Example 9], the IC50 under setting [1] stood at 0.0004 µM and the IC50 under setting [2] stood at 0.0539 µM.

Turning to `C=CC(=O)N1CC[C@H](F)[C@@H](Nc2ncnc3[nH]ccc23)C1` [Example 4, 1-((3S,4S)-3-((7H-pyrrolo[2,3-d]pyrimidin-4-yl)amino)-4-fluoropiperidin-1-yl)prop-2-en-1-one], the IC50 is 0.0005 µM under setting [1] and 0.0321 µM under setting [2].

As for `C=CC(=O)N1C[C@H](C#N)C[C@@H](Nc2ncnc3[nH]ccc23)C1` [Example 6, (3R,5R)-5-((7H-pyrrolo[2,3-d]pyrimidin-4-yl)amino)-1-acryloylpiperidine-3-carbonitrile], the half-maximal inhibitory concentration (IC50) is, setting by setting: under setting [1], 0.0003 µM; under setting [2], 0.04 µM.

As to `C=CC(=O)N1CCC[C@@H](Nc2ncnc3[nH]ccc23)C1` [Example 12, (R)-1-(3-((7H-Pyrrolo[2,3-d]pyrimidin-4-yl)amino)piperidin-1-yl)prop-2-en-1-one], the IC50 by setting is: under setting [1], 0.0007 µM; under setting [2], 0.0568 µM.

`C=CC(=O)N1C[C@H](Nc2ncnc3[nH]cc(CCOC)c23)CC[C@@H]1C` [Example 13, 1-((2S,5R)-5-((5-(2-Methoxyethyl)-7H-pyrrolo[2,3-d]pyrimidin-4-yl)amino)-2-methylpiperidin-1-yl)prop-2-en-1-one]: the IC50 was 0.0004 µM under setting [1] and 0.0606 µM under setting [2].

For `C=CC(=O)N1C[C@@H](F)C[C@@H](Nc2ncnc3[nH]ccc23)C1` [Example 15, 1-((3R,5S)-3-((7H-Pyrrolo[2,3-d]pyrimidin-4-yl)amino)-5-fluoropiperidin-1-yl)prop-2-en-1-one], the IC50 is, setting by setting: under setting [1], 0.0009 µM; under setting [2], 0.0827 µM.

Regarding `C=CC(=O)N1C[C@@H](O)C[C@@H](Nc2ncnc3[nH]ccc23)C1` [Example 17, 1-((3R,5S)-3-(7H-Pyrrolo[2,3-d]pyrimidin-4-ylamino)-5-hydroxypiperidin-1-yl)prop-2-en-1-one], the IC50 under setting [1] was 0.0017 µM and the half-inhibitory concentration (IC50) under setting [2] amounted to 0.0922 µM.

For `C=CC(=O)N1C[C@H](Nc2ncnc3[nH]cc(Cl)c23)CC[C@@H]1C` [Example 18, 1-((2S,5R)-5-((5-Chloro-7H-pyrrolo[2,3-d]pyrimidin-4-yl)amino)-2-methylpiperidin-1-yl)prop-2-en-1-one], the IC50 reads like this: under setting [1], 0.0002 µM; under setting [2], 0.0161 µM.

For the compound `C=CC(=O)N1C[C@H](Nc2ncnc3[nH]ccc23)C[C@H](OC)C1` [Example 19, 1-((3R,5S)-3-((7H-Pyrrolo[2,3-d]pyrimidin-4-yl)amino)-5-methoxypiperidin-1-yl)prop-2-en-1-one], the IC50 by setting is: under setting [1], 0.0006 µM; under setting [2], 0.0676 µM.

With `C=CC(=O)N1CCC[C@@H](Nc2ncnc3[nH]cc(CC#N)c23)C1` [Example 20, (R)-2-(4-((1-Acryloylpiperidin-3-yl)amino)-7H-pyrrolo[2,3-d]pyrimidin-5-yl)acetonitrile], the concentration for half-maximal inhibition (IC50) under setting [1] stood at 0.001 µM and the half-maximal inhibitory concentration (IC50) under setting [2] amounted to 0.0765 µM.

For the compound `C=CC(=O)N1CCC[C@@H](Nc2ncnc3[nH]cc(-c4cncc(F)c4)c23)C1` [Example 23, 1-[(3R)-3-{[5-(5-fluoropyridin-3-yl)-7H-pyrrolo[2,3-d]pyrimidin-4-yl]amino}piperidin-1-yl]prop-2-en-1-one], the IC50 is 0.0013 µM under setting [1] and 0.0866 µM under setting [2].

As to `C=CC(=O)N1CCC[C@@H](Nc2ncnc3[nH]cc(-c4cncc(OC)c4)c23)C1` [Example 24, 1-[(3R)-3-{[5-(5-methoxypyridin-3-yl)-7H-pyrrolo[2,3-d]pyrimidin-4-yl]amino}piperidin-1-yl]prop-2-en-1-one], the IC50 runs as follows: under setting [1], 0.0012 µM; under setting [2], 0.0981 µM.

On to `C=CC(=O)N1CCC[C@@H](Nc2ncnc3[nH]cc(-c4ccccc4O)c23)C1` [Example 25, 1-[(3R)-3-{[5-(2-hydroxyphenyl)-7H-pyrrolo[2,3-d]pyrimidin-4-yl]amino}piperidin-1-yl]prop-2-en-1-one], for which the IC50 under setting [1] is 0.0029 µM and the IC50 under setting [2] came to 0.149 µM.

Turning to `C=CC(=O)N1CCC[C@@H](Nc2ncnc3[nH]cc(-c4cccnc4)c23)C1` [Example 26, 1-[(3R)-3-{[5-(pyridin-3-yl)-7H-pyrrolo[2,3-d]pyrimidin-4-yl]amino}piperidin-1-yl]prop-2-en-1-one], the IC50 is, setting by setting: under setting [1], 0.0016 µM; under setting [2], 0.153 µM.

Consider `C=CC(=O)N1CCC[C@@H](Nc2ncnc3[nH]cc(-c4ccc(C(=O)N(C)C)cc4)c23)C1` [Example 27, 4-(4-{[(3R)-1-acryloylpiperidin-3-yl]amino}-7H-pyrrolo[2,3-d]pyrimidin-5-yl)-N,N-dimethylbenzamide], for which the IC50 is, setting by setting: under setting [1], 0.0028 µM; under setting [2], 0.294 µM.

As to `C=CC(=O)N1CCC[C@@H](Nc2ncnc3[nH]cc(-c4ccc5c(cnn5C)c4)c23)C1` [Example 34, 1-[(3R)-3-{[5-(1-methyl-1H-indazol-5-yl)-7H-pyrrolo[2,3-d]pyrimidin-4-yl]amino}piperidin-1-yl]prop-2-en-1-one], the IC50 runs as follows: under setting [1], 0.0544 µM; under setting [2], 4.82 µM.

Turning to `C=CC(=O)N1CCC[C@@H](Nc2ncnc3[nH]cc(-c4cnc(N5CCOCC5)nc4)c23)C1` [Example 35, 1-[(3R)-3-({5-[2-(morpholin-4-yl)pyrimidin-5-yl]-7H-pyrrolo[2,3-d]pyrimidin-4-yl}amino)piperidin-1-yl]prop-2-en-1-one], the IC50 under setting [1] was 0.083 µM.

Regarding `C=CC(=O)N1CCC[C@@H](Nc2ncnc3[nH]cc(C4CC4)c23)C1` [Example 37, 1-{(3R)-3-[(5-cyclopropyl-7H-pyrrolo[2,3-d]pyrimidin-4-yl)amino]piperidin-1-yl}prop-2-en-1-one], the IC50 under setting [1] turned out to be 0.295 µM.

Regarding `C=CC(=O)N1CCC[C@@H](Nc2ncnc3[nH]cc(/C=C/c4ccoc4)c23)C1` [Example 38, 1-[(3R)-3-({5-[(E)-2-(furan-3-yl)ethenyl]-7H-pyrrolo[2,3-d]pyrimidin-4-yl}amino)piperidin-1-yl]prop-2-en-1-one], the IC50 under setting [1] was found to be 3.25 µM.

For `C=CC(=O)N1CCC[C@@H](Nc2ncnc3[nH]cc(CC(C)C)c23)C1` [Example 39, 1-[(3R)-3-{[5-(2-methylpropyl)-7H-pyrrolo[2,3-d]pyrimidin-4-yl]amino}piperidin-1-yl]prop-2-en-1-one], the 50% inhibitory concentration (IC50) under setting [1] is over 10 µM.

Turning to `C=CC(=O)N1CCC[C@@H](Nc2ncnc3[nH]cc(C=C)c23)C1` [Example 40, 1-{(3R)-3-[(5-ethenyl-7H-pyrrolo[2,3-d]pyrimidin-4-yl)amino]piperidin-1-yl}prop-2-en-1-one], the 50% inhibitory concentration (IC50) under setting [1] was over 10 µM.

Regarding `C=C(C(=O)N1CC[C@@H]2CCN(c3ncnc4[nH]ccc34)[C@@H]2C1)C(F)(F)F` [Example 41, 1-((3aS,7aS)-1-(7H-Pyrrolo[2,3-d]pyrimidin-4-yl)hexahydro-1H-pyrrolo[2,3-c]pyridin-6 (2H)-yl)-2-(trifluoromethyl)prop-2-en-1-one], the half-maximal inhibitory concentration (IC50) is, setting by setting: under setting [1], 0.001 µM; under setting [2], 0.0925 µM.

With `C=CC(=O)N1CCC[C@@H](Nc2ncnc3[nH]cc(F)c23)C1` [Example 42, 1-{(3R)-3-[(5-fluoro-7H-pyrrolo[2,3-d]pyrimidin-4-yl)amino]piperidin-1-yl}prop-2-en-1-one], the IC50 reads like this: under setting [1], 0.0009 µM; under setting [2], 0.0944 µM.

Turning to `C=CC(=O)N1CCC[C@@H](Nc2ncnc3[nH]cc(C)c23)C1` [Example 43, 1-{(3R)-3-[(5-methyl-7H-pyrrolo[2,3-d]pyrimidin-4-yl)amino]piperidin-1-yl}prop-2-en-1-one], the half-maximal inhibitory concentration (IC50) is, setting by setting: under setting [1], 0.0012 µM; under setting [2], 0.0995 µM.

Consider `C=CC(=O)N1CCC[C@@H](Nc2ncnc3[nH]cc(CC)c23)C1` [Example 44, 1-{(3R)-3-[(5-ethyl-7H-pyrrolo[2,3-d]pyrimidin-4-yl)amino]piperidin-1-yl}prop-2-en-1-one], for which the IC50 is, setting by setting: under setting [1], 0.0003 µM; under setting [2], 0.168 µM.

With `C=CC(=O)N1CCC[C@@H](Nc2ncnc3[nH]cc(C#N)c23)C1` [Example 45, 4-{[(3R)-1-acryloylpiperidin-3-yl]amino}-7H-pyrrolo[2,3-d]pyrimidine-5-carbonitrile], the IC50 runs as follows: under setting [1], 0.001 µM; under setting [2], 0.169 µM.

Consider `C=CC(=O)N1CCC[C@@H](Nc2ncnc3[nH]cc(CCOC)c23)C1` [Example 46, 1-[(3R)-3-{[5-(2-methoxyethyl)-7H-pyrrolo[2,3-d]pyrimidin-4-yl]amino}piperidin-1-yl]prop-2-en-1-one], for which the IC50 is, setting by setting: under setting [1], 0.0028 µM; under setting [2], 0.305 µM.

For the compound `C#Cc1c[nH]c2ncnc(N3CC[C@H]4CCN(C(=O)C=C)C[C@H]43)c12` [Example 48, 1-[(3aS,7aS)-1-(5-ethynyl-7H-pyrrolo[2,3-d]pyrimidin-4-yl)octahydro-6H-pyrrolo[2,3-c]pyridin-6-yl]prop-2-en-1-one], the IC50 is 0.0008 µM under setting [1] and 0.101 µM under setting [2].

For orientation: IC50 means the midpoint of a concentration-inhibition curve.
